Assay results taken from ChEMBL document CHEMBL1138114, “Convergent, parallel synthesis of a series of beta-substituted 1,2,4-oxadiazole butanoic acids as potent and selective alpha(v)beta3 receptor antagonists” (Bioorg Med Chem Lett, 2006).

Columns and labels:
[1] = target: T1, Integrin alpha-V/beta-3 (Homo sapiens, UniProt P05106+P06756); test: Inhibition of Integrin alphav-beta3 receptor by SPRA assay; format: protein-complex assay
[2] = target: Integrin alpha-IIb/beta-3 (Homo sapiens, UniProt P05106+P08514); test: Inhibition of Integrin alpha-2b-beta-3 receptor by SPRA assay; format: protein-complex assay
Sequence of Integrin alpha-IIb/beta-3 (P05106 27-788 limits assumed): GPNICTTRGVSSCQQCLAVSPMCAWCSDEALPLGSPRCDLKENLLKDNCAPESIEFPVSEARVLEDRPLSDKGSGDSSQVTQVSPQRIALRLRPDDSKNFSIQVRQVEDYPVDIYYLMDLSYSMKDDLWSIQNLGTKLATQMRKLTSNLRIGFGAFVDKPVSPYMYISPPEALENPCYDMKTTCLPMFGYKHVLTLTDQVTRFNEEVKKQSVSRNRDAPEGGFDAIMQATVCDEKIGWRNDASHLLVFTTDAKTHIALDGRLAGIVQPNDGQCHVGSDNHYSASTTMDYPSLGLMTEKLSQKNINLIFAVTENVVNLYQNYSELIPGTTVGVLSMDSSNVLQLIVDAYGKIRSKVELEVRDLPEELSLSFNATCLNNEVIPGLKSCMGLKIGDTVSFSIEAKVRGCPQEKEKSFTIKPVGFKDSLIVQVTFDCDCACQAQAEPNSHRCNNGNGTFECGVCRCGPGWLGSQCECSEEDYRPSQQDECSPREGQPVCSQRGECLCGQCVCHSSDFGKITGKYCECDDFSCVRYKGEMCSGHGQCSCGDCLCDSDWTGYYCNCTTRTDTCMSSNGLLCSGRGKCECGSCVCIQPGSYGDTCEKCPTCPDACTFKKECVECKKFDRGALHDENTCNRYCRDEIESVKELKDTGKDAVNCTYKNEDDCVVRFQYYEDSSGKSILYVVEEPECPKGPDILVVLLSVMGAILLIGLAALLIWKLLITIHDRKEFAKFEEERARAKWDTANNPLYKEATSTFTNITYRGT
Sequence of Integrin alpha-IIb/beta-3 (P08514 32-887 limits assumed): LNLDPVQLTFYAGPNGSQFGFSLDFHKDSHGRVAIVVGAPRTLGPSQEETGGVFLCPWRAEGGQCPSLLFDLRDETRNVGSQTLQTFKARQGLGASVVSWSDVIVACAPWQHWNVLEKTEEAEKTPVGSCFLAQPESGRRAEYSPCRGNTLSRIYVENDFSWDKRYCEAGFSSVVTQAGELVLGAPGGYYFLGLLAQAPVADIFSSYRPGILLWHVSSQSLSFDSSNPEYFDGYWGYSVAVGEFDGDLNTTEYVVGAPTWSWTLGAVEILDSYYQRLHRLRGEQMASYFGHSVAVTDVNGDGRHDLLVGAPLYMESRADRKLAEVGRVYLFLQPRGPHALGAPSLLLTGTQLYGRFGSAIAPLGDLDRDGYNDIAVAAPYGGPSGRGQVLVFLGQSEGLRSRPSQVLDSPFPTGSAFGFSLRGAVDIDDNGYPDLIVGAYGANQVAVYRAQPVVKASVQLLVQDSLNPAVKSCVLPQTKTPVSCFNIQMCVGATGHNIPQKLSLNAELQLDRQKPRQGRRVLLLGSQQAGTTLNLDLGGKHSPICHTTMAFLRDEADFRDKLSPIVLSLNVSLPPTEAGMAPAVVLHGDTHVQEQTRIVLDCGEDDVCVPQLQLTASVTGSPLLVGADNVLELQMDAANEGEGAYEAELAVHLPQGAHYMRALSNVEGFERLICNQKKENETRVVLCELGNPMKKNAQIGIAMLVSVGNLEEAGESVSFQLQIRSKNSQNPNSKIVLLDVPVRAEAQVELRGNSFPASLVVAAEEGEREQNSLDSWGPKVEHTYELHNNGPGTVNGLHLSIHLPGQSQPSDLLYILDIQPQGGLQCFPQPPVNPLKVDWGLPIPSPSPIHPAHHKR
Sequence of Integrin alpha-IIb/beta-3 (P08514 891-1039 limits assumed): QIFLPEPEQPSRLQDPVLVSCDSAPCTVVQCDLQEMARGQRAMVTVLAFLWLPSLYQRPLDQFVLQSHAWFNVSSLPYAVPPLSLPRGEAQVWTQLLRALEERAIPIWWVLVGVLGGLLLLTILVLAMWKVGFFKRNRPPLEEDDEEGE

[3] = target: T1, Integrin alpha-V/beta-3; test: Inhibition of Integrin alphav-beta3 receptor expressed in HEK293 cells; format: cell-based
[4] = target: Integrin alpha-V/beta-5 (Homo sapiens, UniProt P06756+P18084); test: Inhibition of Integrin alphav-beta5 receptor expressed in HEK293 cell line; format: cell-based
Sequence of Integrin alpha-V/beta-5 (P06756 31-889 limits assumed): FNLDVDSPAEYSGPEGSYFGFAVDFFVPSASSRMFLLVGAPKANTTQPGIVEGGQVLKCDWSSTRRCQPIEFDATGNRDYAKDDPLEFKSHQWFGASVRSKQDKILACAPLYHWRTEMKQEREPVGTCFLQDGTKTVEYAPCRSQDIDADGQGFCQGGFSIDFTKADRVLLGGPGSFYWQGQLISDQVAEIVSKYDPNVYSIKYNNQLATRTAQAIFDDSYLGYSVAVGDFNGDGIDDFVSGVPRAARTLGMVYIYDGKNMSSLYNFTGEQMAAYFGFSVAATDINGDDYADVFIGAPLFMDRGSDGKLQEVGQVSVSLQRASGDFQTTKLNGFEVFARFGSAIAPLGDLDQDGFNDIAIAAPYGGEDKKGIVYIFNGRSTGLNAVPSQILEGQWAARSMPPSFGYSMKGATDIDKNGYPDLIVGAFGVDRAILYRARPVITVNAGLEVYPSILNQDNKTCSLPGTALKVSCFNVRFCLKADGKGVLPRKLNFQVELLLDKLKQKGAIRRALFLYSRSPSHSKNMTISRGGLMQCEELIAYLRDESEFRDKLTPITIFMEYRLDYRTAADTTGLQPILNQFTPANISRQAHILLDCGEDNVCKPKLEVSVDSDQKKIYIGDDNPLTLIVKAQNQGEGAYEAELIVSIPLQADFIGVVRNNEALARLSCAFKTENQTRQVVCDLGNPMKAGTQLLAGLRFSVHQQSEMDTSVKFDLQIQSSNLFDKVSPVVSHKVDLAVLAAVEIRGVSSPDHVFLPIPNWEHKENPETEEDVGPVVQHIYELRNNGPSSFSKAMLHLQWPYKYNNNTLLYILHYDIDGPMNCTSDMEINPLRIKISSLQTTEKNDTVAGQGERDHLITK
Sequence of Integrin alpha-V/beta-5 (P06756 891-1048 limits assumed): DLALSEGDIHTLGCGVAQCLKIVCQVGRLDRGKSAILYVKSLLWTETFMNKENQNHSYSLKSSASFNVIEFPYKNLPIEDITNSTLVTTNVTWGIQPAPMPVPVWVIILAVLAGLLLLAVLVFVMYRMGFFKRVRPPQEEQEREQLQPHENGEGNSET
Sequence of Integrin alpha-V/beta-5 (P18084 24-799 limits assumed): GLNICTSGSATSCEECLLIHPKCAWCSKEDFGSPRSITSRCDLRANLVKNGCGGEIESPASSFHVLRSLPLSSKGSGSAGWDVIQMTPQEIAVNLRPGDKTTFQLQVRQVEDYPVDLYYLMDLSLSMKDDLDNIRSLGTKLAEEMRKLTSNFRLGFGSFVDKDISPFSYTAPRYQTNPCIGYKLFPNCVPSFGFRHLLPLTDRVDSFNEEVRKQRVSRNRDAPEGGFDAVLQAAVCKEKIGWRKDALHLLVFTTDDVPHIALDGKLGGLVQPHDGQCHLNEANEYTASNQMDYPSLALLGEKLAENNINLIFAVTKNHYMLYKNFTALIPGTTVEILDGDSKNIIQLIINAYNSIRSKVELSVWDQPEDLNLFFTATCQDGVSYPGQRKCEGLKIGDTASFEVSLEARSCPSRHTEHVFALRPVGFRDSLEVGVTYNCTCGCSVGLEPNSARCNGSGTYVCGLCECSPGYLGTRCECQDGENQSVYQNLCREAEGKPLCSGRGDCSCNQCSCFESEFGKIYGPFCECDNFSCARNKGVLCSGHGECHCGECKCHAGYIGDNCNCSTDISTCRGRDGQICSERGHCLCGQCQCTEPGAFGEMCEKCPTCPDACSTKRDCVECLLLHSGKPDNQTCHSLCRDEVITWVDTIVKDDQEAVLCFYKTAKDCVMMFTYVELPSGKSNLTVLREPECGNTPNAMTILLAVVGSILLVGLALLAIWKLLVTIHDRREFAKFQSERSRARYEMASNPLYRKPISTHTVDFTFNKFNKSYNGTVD

[5] = target: Integrin alpha-V/beta-6 (Homo sapiens, UniProt P06756+P18564); test: Inhibition of Integrin alphav-beta6 receptor expressed in HT29 cell line; format: cell-based, HT-29
Sequence of Integrin alpha-V/beta-6 (P06756 31-889 limits assumed): as the sequence (P06756 31-889 limits assumed) above
Sequence of Integrin alpha-V/beta-6 (P06756 891-1048 limits assumed): as the sequence (P06756 891-1048 limits assumed) above
Sequence of Integrin alpha-V/beta-6 (P18564 22-788 limits assumed): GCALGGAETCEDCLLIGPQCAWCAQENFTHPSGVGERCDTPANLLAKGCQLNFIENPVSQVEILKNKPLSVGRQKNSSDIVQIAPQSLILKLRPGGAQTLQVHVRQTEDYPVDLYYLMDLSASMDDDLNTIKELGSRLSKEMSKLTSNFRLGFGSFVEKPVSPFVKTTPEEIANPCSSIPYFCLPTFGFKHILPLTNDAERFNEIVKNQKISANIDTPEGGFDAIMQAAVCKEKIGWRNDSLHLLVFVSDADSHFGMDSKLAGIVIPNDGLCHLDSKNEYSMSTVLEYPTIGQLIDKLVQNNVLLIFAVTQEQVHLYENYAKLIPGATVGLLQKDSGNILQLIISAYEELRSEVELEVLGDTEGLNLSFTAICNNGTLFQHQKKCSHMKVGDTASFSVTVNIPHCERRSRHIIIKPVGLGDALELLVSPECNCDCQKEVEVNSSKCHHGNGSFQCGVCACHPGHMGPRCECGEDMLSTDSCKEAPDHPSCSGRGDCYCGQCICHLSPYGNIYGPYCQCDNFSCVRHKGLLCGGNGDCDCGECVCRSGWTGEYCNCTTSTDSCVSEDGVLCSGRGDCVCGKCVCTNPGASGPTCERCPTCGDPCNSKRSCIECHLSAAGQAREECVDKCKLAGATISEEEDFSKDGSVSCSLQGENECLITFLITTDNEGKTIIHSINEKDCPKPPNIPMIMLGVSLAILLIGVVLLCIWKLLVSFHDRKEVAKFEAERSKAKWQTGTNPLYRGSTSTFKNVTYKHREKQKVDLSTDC

[6] = target: Integrin alpha-V/beta-1 (Homo sapiens, UniProt P05556+P06756); test: Inhibition of Integrin alphav-beta1 receptor expressed in HEK293 cell line; format: cell-based
[7] = Half life in rat at 5 mg/kg, iv; format: ADME, organism-based; design: dose 5 mg/kg, route intravenous; conditions: in vivo
[8] = Volume of distribution in rat at 5 mg/kg, iv; format: ADME, organism-based; design: dose 5 mg/kg, route intravenous; conditions: in vivo, read-out: Vdss
[9] = Clearance in rat at 5 mg/kg, iv; format: ADME, organism-based; design: dose 5 mg/kg, route intravenous; conditions: in vivo
[10] = system: Rattus norvegicus; test: AUC/dose(mg/kg) in orally dosed rat at 10 mg/kg; format: ADME, organism-based, Plasma; design: dose 10 mg/kg, route oral; conditions: in vivo, po
[11] = Bioavailability in rat at 5 mg/kg, iv; format: ADME, organism-based; conditions: in vivo

T1 sequence (P05106 27-788 limits assumed): as the sequence (P05106 27-788 limits assumed) above
T1 sequence (P06756 31-889 limits assumed): as the sequence (P06756 31-889 limits assumed) above
T1 sequence (P06756 891-1048 limits assumed): as the sequence (P06756 891-1048 limits assumed) above

| SMILES | IC50 [1] [nM] | IC50 [2] [nM] | IC50 [3] [nM] | IC50 [4] [nM] | IC50 [5] [nM] | IC50 [6] [nM] | half-life [7] [h] | Vd [8] [L/kg] | clearance [9] [mL/min/kg] | AUC/dose [10] | bioavailability [11] [%] |
| --- | --- | --- | --- | --- | --- | --- | --- | --- | --- | --- | --- |
| O=C(O)C[C@H](Cc1nc(CCCCNc2ccccn2)no1)c1ccc2c(c1)OCO2 | 2.4 | 126 | – | – | – | – | – | – | – | – | – |
| O=C(O)C[C@H](Cc1nc(CCCCNc2cc(N3CCOCC3)ccn2)no1)c1ccc2c(c1)OCO2 | 0.78 | 17 | 0.74 | 4.6 | 4360 | – | – | – | – | – | – |
| O=C(O)CC(Cc1nc(CCCc2ccc3c(n2)NCCC3)no1)c1ccc2ncoc2c1 (stereo not given) | 0.5 | 65.4 | 0.32 | – | 486 | 2.7 | – | – | – | – | – |
| Cc1ccnc(NCCCCc2noc(C[C@@H](CC(=O)O)c3ccc4c(c3)OCO4)n2)c1 | 2 | 91 | – | – | – | – | – | – | – | – | – |
| O=C(O)CC(Cc1nc(CCCc2ccc3c(n2)NCCC3)no1)c1ccc2c(c1)OCC2 (stereo not given) | 2.1 | 224 | 0.63 | – | 3020 | 9.7 | 1.2 | 0.803 | 17.3 | 970 ng·h/mL/(mg/kg) | 63 |
| CC(C)(CC(=O)O)Cc1nc(CCCc2ccc3c(n2)NCCC3)no1 | 20 | 12600 | – | – | – | – | – | – | – | – | – |
| CNc1cccc(CCCc2noc(CC(CC(=O)O)c3ccc4c(c3)OCO4)n2)n1 (stereo not given) | 2.1 | 278 | 3.2 | 16 | > 10000 | – | – | – | – | – | – |
| O=C(O)CC(Cc1nc(CCCc2ccc3c(n2)NCCC3)no1)c1cnc(C2CC2)s1 (stereo not given) | 1.43 | 168 | 0.6 | 1.2 | 1590 | – | 1.8 | 0.497 | 5.56 | 3050 ng·h/mL/(mg/kg) | 96 |
| CC(CC(=O)O)(Cc1nc(CCCc2ccc3c(n2)NCCC3)no1)c1cccnc1 (stereo not given) | 3.6 | 950 | – | – | – | – | – | – | – | – | – |
| O=C(O)CC(Cc1nc(CCCc2ccc3c(n2)NCCC3)no1)c1cccc(F)c1 (stereo not given) | 1.75 | 419 | 1.1 | 3.7 | 3730 | – | – | – | – | – | – |
| O=C(O)CC1(Cc2nc(CCCc3ccc4c(n3)NCCC4)no2)CCCC1 | 9.5 | 8130 | – | – | – | – | – | – | – | – | – |
| C#CC(CC(=O)O)Cc1nc(CCCc2ccc3c(n2)NCCC3)no1 (stereo not given) | 8.7 | 1220 | 4 | 4 | 6240 | – | – | – | – | – | – |
| CC(CC(=O)O)Cc1nc(CCCc2ccc3c(n2)NCCC3)no1 (stereo not given) | 12 | 9300 | – | – | – | – | – | – | – | – | – |
| O=C(O)CC(Cc1nc(CCCc2ccc3c(n2)NCCC3)no1)c1ccccc1 (stereo not given) | 1.8 | 747 | – | – | – | – | – | – | – | – | – |
| O=C(O)C[C@H](Cc1nc(CCCc2ccc3c(n2)NCCC3)no1)c1ccc2c(c1)OCO2 | 0.4 | 27 | 0.65 | 1.7 | 2660 | 2.6 | 1.4 | 0.733 | 10.9 | 1500 ng·h/mL/(mg/kg) | 95 |
| O=C(O)CC(Cc1nc(CCCc2ccc3c(n2)NCCC3)no1)c1cnn(-c2ccccc2)c1 (stereo not given) | 1.2 | 216 | – | – | – | – | – | – | – | – | – |
| O=C(O)CCCc1nc(CCCc2ccc3c(n2)NCCC3)no1 | 160 | 32500 | – | – | – | – | – | – | – | – | – |
| O=C(O)CC(Cc1nc(CCCc2ccc3c(n2)NCCC3)no1)c1cnc2ccccc2c1 (stereo not given) | 0.65 | 18 | – | – | – | – | 1.1 | 0.622 | 19.1 | 600 ng·h/mL/(mg/kg) | 66 |
| COc1ccc(C(CC(=O)O)Cc2nc(CCCc3ccc4c(n3)NCCC4)no2)cn1 (stereo not given) | 1 | 187 | – | – | – | – | 1.1 | 0.694 | 12 | 1910 ng·h/mL/(mg/kg) | 100 |
| CN1CCNc2nc(CCCc3noc(CC(CC(=O)O)c4ccc5c(c4)OCO5)n3)ccc21 (stereo not given) | 1.7 | – | – | – | – | – | 0.93 | 0.447 | 18.2 | 710 ng·h/mL/(mg/kg) | 77 |
| CC(CC(=O)O)(Cc1nc(CCCc2ccc3c(n2)NCCC3)no1)c1ccccc1 (stereo not given) | 116 | 35800 | – | – | – | – | – | – | – | – | – |
| O=C(O)CC(Cc1nc(CCCc2ccc3c(n2)NCCC3)no1)c1cccnc1 (stereo not given) | 1.6 | 474 | 0.77 | 3.3 | 2420 | – | – | – | – | – | – |
| Cc1ncc(C(CC(=O)O)Cc2nc(CCCc3ccc4c(n3)NCCC4)no2)s1 (stereo not given) | 1.28 | 423 | – | – | – | – | – | – | – | – | – |
| COc1ccnc(NCCCCc2noc(C[C@@H](CC(=O)O)c3ccc4c(c3)OCO4)n2)c1 | 1.1 | 64 | – | – | – | – | – | – | – | – | – |
| O=C(O)C[C@H](Cc1nc(CCCCNc2cc(N3CCSCC3)ccn2)no1)c1ccc2c(c1)OCO2 | 0.26 | 22 | 0.62 | 2.9 | 2670 | – | 0.4 | 0.897 | 78 | 60 ng·h/mL/(mg/kg) | 29 |
